These results are taken from patent publication US11085053B2, “Efficient selectivity of recombinant proteins” (REGENERON PHARMACEUTICALS, INC., priority 2014, dated 2021).

This test has as its system Modified CHO K1 cells. Nature of the test: Selection efficiency of transfectant cells by FACS (GFP+ population). The test is classed as cell-based, Chinese hamster. From the text: Modified CHO K1 cells were transfected with a plasmid vector containing CHO-GPT (SEQ ID NO: 2), human GPT (SEQ ID NO:12) or a plasmid vector containing a hygromycin phosphotransferase (Hpt, Hygromycin resistant gene); e.g. the selectable marker gene (CHO-GPT or hpt) was transcriptionally linked to a downstream eGFP gene via an IRES sequence, in their respective vectors. For example, each plasmid was constructed to contain the following gene sequences, in 5′ to 3′ direction: a Lox site, a SV40 late promoter, either CHO-GPT (or Hpt), IRES, enhanced green fluorescent protein (eGFP), and a second Lox site. Purified recombinant plasmids were transfected together with a plasmid that expresses Cre recombinase, into a modified CHO host cell line containing: from 5′ to 3′, a lox site, YFP, and a second lox site, at a transcriptionally active locus. Consequently, the host CHO cell can be isolated by flow cytometry as a green-positive or a yellow-negative cell. […]
Cell populations were either incubated with 0, 1 μg/ml, 2.5 μg/ml or 5 μg/ml tunicamycin (Tn) or 400 μg hygromycin (Hyg), as outlined in Table 2. Observed recombinant populations (ORPs) were measured by fluorescent-activated cell sorting (FACS) analysis. Cells were sorted to quantitate each population of cells, and selection efficiency was calculated for cells expressing only GFP and not YFP (FIG. 4 or 5). […]
(In general: A flow cytometer gives signals particle by particle.)

For tunicamycin, the “Selection efficiency compared with hygromycin selection” value was “as efficient as hygromycin selection”.
